Here are results for four molecules from patent US8492106B2, “Identification methods for ergothioneine transporter modulators and therapeutic uses thereof” (Universitat Zu Koln, priority 2004, dated 2013).

The structures appear in SMILES notation. Where two headings read alike, the source gives them in different places.

For data set [1], the target named is T1, ETTh (Homo sapiens, UniProt Q9H015).
T1 construct: expressed in transfected cells
T1 sequence (Q9H015 1-551): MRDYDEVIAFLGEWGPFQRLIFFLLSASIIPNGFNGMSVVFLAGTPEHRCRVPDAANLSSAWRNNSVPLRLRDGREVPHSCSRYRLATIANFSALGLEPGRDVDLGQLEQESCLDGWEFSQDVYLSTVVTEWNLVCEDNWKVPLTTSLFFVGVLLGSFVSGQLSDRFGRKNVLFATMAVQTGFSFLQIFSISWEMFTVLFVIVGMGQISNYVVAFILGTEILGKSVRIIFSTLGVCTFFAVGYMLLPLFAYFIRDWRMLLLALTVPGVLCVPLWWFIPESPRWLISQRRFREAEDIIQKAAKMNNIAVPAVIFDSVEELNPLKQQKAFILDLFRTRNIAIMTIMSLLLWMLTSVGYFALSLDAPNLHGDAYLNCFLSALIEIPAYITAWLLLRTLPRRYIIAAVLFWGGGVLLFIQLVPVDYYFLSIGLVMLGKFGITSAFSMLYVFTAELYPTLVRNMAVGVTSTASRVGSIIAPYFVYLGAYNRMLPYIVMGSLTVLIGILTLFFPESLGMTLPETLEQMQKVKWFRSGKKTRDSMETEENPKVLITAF
Nature of the data set: Substrate uptake into 293-FIT-ETTh cells expressing ETTh (LC-MS/MS and radiotracer assays). In kind it is cell-based. The conditions noted are these: for Km: read-out: Km (affinity of ETTh). As for the experimental part:
Substrate concentration was 10 μmol/l for all LC-MS/MS assays (gamma-butyryl betaine, N-methyl proline (alias hygric acid), hydroxyproline betaine (alias betonicine), proline betaine (alias stachydrine), and ergothioneine) and 0.1 μmol/l for all radiotracer assays.
(§1) FIG. 3: Determination of Km and Vmax of ergiothioneine transport via ETTh. 293-FIT-ETTh (filled circles) or 293-FIT-NT (open circles) cell monolayers were incubated for 1 min at 37° C. with various ET concentrations in KRH buffer. After thorough washing, cells were lysed with 4 mmol/l HClO4. Lysates were analysed for ET content by LC-MS/MS. Each circle represents a single dish. Uptake into control cells was modeled with a straight line through the origin.
The cDNA of ETTh (EMBL/GenBank accession number Y09881) was inserted into the eukaryotic expression vector pcDNA5/FRT/TO (Invitrogen) to yield pcDNA5/FRT/TO/ETTh. This plasmid was cotransfected together with plasmid pOG44 by lipofection with Tfx-50 (Promega) into Flp-In T-REx 293 cells (Invitrogen; referred to as 293-FIT-NT in the remainder). After antibiotic selection with hygromycin B and blasticidin S, the surviving cells, used as a pool and designated as 293-FIT-ETTh, were assayed for ETT transcripts by Northern analysis.
The cell lines 293-FIT-ETTh and 293-FIT-NT (original cell line, not transfected), grown as monolayers in 6 cm diameter polystyrol dishes and induced with 1 μg/ml doxycycline for 20 h, were incubated for 1 min at 37° C. with 2 ml of a mixture of human plasma (50%) and KRH buffer (50%). KRH buffer (Krebs-Ringer-Henseleit) contains 5.6 mM (+)-Glucose, 125 mM NaCl, 4.8 mM KCl, 1.2 mM KH2PO4, 1.2 mM CaCl2, 1.2 mM MgSO4, and 25 mM HEPES-NaOH pH 7.4. The dishes were rinsed 4 times with 3 ml ice-cold KRH and subsequently incubated with 1 ml of 4 mmol/l HClO4 to release the cell contents. 15 μl of lysate were analyzed by LC-MS (ESI, positive mode) using a Thermo Finnigan TSQ Quantum triple quad mass spectrometer equipped with a Waters Atlantis HILIC silica column (length 100 mm, diameter 3 mm, particle size 5 μm). The solvent for isocratic chromatography (flow rate 250 μl/min) was made of methanol (70%) and 0.1% formic acid (30%). Data sets were compared by LC-MS Difference Shading software (see separate patent application).
A series of compounds structurally related to either stachydrine or carnitine, the key substrate of the related OCTN2 transporter was tested, for transport by ETTh. […] LC-MS/MS determines total cellular content of a particular analyte.

For data set [2], the target named is T2, carnitine transporter OCTN2 from rat (Rattus norvegicus, UniProt O70594).
T2 sequence (O70594 1-557): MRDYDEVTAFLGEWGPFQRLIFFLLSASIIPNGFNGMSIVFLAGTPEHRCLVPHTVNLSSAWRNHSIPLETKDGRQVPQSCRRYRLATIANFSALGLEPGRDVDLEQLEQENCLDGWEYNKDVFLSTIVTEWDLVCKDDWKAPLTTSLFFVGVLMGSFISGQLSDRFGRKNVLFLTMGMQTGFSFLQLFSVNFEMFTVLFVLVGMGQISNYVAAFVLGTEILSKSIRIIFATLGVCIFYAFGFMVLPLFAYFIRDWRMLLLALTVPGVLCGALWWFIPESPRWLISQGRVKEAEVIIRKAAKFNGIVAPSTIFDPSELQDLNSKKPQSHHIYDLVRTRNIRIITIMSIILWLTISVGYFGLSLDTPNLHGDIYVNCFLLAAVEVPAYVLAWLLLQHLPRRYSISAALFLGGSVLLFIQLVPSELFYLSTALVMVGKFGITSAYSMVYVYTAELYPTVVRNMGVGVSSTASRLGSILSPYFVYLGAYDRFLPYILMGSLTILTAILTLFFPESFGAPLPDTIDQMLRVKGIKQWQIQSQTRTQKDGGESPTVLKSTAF
Briefly: ET transport by carnitine transporter OCTN2. In kind it is cell-based.
Text: If the substrate concentration is much smaller than the affinity of the transporter (=Km), then the clearance is directly proportional to the transport efficiency, defined, by analogy to catalytic efficiency for enzymes, as kcat/Km, where kcat is the turnover number of an individual transporter molecule (note that Vmax=kcat*Etotal, where Etotal is the number of transporter molecules).

For data set [3], the system named is 293-FIT-NT cells. Nature of the data set: ET uptake into control 293-FIT-NT cells (no ETT expression). In kind it is cell-based, human. How it is done: as §1
Data set [4] in a line: Accumulation of ergothioneine in the lens of the eye.
For data set [5] the following is noted: Man, blood; cited from earlier work.
For data set [6] the following is noted: Rat, blood; cited from earlier work.
For data set [7] the following is noted: Rabbit, blood; cited from earlier work.
The conditions of data set [8]: Guinea Pig, blood; cited from earlier work.
For data set [9] the following is noted: Cat, blood; cited from earlier work.
For data set [10] the following is noted: Dog, blood; cited from earlier work.
The conditions of data set [11]: Ox, blood; cited from earlier work.
The conditions of data set [12]: Pig, blood; cited from earlier work.
For data set [13] the following is noted: Sheep, blood; cited from earlier work.
The conditions of data set [14]: Fowl, blood; cited from earlier work.
The conditions of data set [15]: cited from earlier work.
For data set [16] the following is noted: in vivo.
Where [17] appears, read: 293-FIT-ETTh cells, 1 min at 37° C., KRH buffer, LC-MS/MS.
Where [18] appears, read: LC-MS/MS assay, substrate 10 μmol/l, 1 min at 37° C.

As for `CC[N+](CC)(CC)CC` [TEA, tetraethyl ammonium], the “transport by ETTh (in words)” value in data set [1] (radiotracer assay, substrate 0.1 μmol/l) was “negligible”.
As usually defined, the Km is the concentration of substrate that gives half-maximal velocity. Take `C[N+](C)(C)[C@@H](Cc1c[nH]c(=S)[nH]1)C(=O)[O-]` [ergothioneine, 2-mercaptohistidine trimethylbetaine]: the “true clearance (Vmax divided by Km)” value in [1] (293-FIT-ETTh cells) is listed as 190 μl/min/mg protein. Moreover, the Vmax in data set [1] (setting [17]) is recorded as 4.2 nmol/min/mg protein. Also, in data set [1] (setting [17]), the Km was 22 µM. Also, the “transport by ETTh (in words)” value in data set [1] (setting [18]) is “extremely high transport activity”. Besides, the “ETTh transports ET better than stachydrine” value in data set [1] (transport efficiency, ET versus stachydrine) is recorded as 10 fold. Further, the “acceptance as substrate by OCTN2” value in data set [2] is “did not accept ET as a substrate at all”. In [3] (293-FIT-NT control cells, 1 min at 37° C., KRH buffer), the “slope d of uptake into control cells” value was 0.32 μl/min/mg protein. Further, the “uptake into cells without expression of ETT (in words)” value in [3] (without expression of ETT) is on record as “virtually no uptake”. Moreover, the “accumulation in the lens of the eye (in words)” value in data set [4] is recorded as “significant accumulation”. The Ergothioneine concentration in data set [5] is 1-4 mg/100 ml blood; in data set [6] it was 1-6 mg/100 ml blood; in data set [7] it was 1-10 mg/100 ml blood; in data set [8], 1-4 mg/100 ml blood; in data set [9] it was 0.5-2 mg/100 ml blood; in data set [10], 3-6 mg/100 ml blood. Also, the Ergothioneine concentration in data set [11] was 0.5-2 mg/100 ml blood; in data set [12], 3-27 mg/100 ml blood; in data set [13], 2-6 mg/100 ml blood; in data set [14], 2-10 mg/100 ml blood. Moreover, the “concentration in human and mammalian tissue (estimated)” value in data set [15] is 1000 to 2000 µM.
Turning to `C[N+]1(C)C[C@@H](O)C[C@@H]1C(=O)[O-]` [hydroxyproline betaine], the “transport by ETTh (in words)” value in [1] (setting [18]) was “good substrates”.
For the molecule `C[N+]1(C)CCC[C@H]1C(=O)[O-]` [stachydrine], the Km in data set [1] (setting [17]) was found to be 300 µM. The “transport by ETTh (in words)” value is recorded as “accumulated” in data set [1] (setting [18]) and “good substrates” in data set [1] (LC-MS/MS assay, substrate 10 μmol/l, 1 min at 37° C., listed as proline betaine). Further, the plasma levels entry in data set [16] is “about 10 μmol/l”.
